Data published in publication PMC8769072, “Proteome‐scale mapping of binding sites in the unstructured regions of the human proteome” (Molecular Systems Biology, 2022).

System: immobilized GST-tagged bait protein domains
Assay: ProP-PD phage selections (HD2 P8, sublibraries, HD2 P3, HD1 P8) with NGS and confidence level
Assay type: binding, human
Conditions: for HD2-1mM_CaCl confidence: HD2 library selection with 1mM_CaCl
[1] = bait CALM1 EF-hand (P0DP23, 2-149), confidence level (4 = High, 2 or 3 = Medium, 1 = Low)
[2] = bait CALM1 EF-hand (P0DP23, 2-149), HD2 library selection, confidence level (4 = High, 2 or 3 = Medium, 1 = Low)
[3] = bait PABP-B_PABP__P11940_544_623, HD2 library, whether the validated benchmark motif instance was recovered in the ProP-PD selection (TRUE/FALSE)
[4] = library HD2, bait EPS15_EH__P42566_121_215, best matching peptide
[5] = library HD2, bait EPS15_EH__P42566_121_215, confidence level of best matching peptide (4 High, 2-3 Medium, 1 Low)
[6] = library HD2, bait EPS15_EH__P42566_121_215, whether the validated benchmark motif instance was recovered in the ProP-PD selection (TRUE/FALSE)
[7] = bait OXSR1___O95747_434_527, HD2 P8 cytoplasm sublibrary, confidence level (4 = High, 2-3 = Medium, 1 = Low)
[8] = bait NEDD4_WW_4_P46934_890_928, HD2 library, whether the validated benchmark motif instance was recovered in the ProP-PD selection (TRUE/FALSE)
[9] = library HD2, bait YAP1_WW_1_P46937_169_207, validated benchmark motif instance, in_library_check TRUE, TRUE/FALSE = instance recovered in ProP-PD selection
[10] = bait CALM1_EF-hand__P0DP23_2_149, library HD2, benchmarking set of validated motif instances, TRUE = motif instance recovered in the ProP-PD selection
[11] = bait ANKRA2_Ank__Q9H9E1_142_313, HD2 P8 selection, confidence level -4 to 4: 4 = High, 3 or 2 = Medium, 1 = Low, 0 = Filtered/Noise
[12] = HD2 library, bait SUMO1_SUMO__P63165_1_101, known motif instance of the benchmarking set found (TRUE) or not found (FALSE) among selected peptides
[13] = bait MAP1LC3A_ATG8 (Q9H492 2-121), HD2 library, benchmark motif instance recovered in the ProP-PD selection (TRUE/FALSE)
[14] = bait MAP1LC3B_ATG8 (Q9GZQ8 2-119), HD2 library, benchmark motif instance recovered in the ProP-PD selection (TRUE/FALSE)
[15] = bait KPNA4_Arm (O00629 68-487), HD2 library, benchmark motif instance recovered in the ProP-PD selection (TRUE/FALSE)
[16] = library HD2, bait Keap1_KELCH__Q14145_321_609, whether the validated benchmark motif instance was recovered in the ProP-PD selection (TRUE/FALSE)
[17] = bait CRK_SH3_1_P46108_124_198, library HD2, benchmarking set of validated motif instances, TRUE = motif instance recovered in the ProP-PD selection
[18] = HD2 library, bait TNKS_TANK-peptide-bind__O95271_174_649, known motif instance of the benchmarking set found (TRUE) or not found (FALSE) among selected peptides
[19] = bait OXSR1___O95747_434_527, HD2 library, confidence level (1-4) of best matching selected peptide
[20] = bait OXSR1___O95747_434_527, HD2 library, specificity score of best matching selected peptide
[21] = bait OXSR1___O95747_434_527, HD2 library, whether the validated benchmark motif instance was recovered in the ProP-PD selection (TRUE/FALSE)

## SLWTALSNFSMPSFPG
[1]
  HD2-1mM_CaCl confidence: 4
[2]
  HD2 confidence: 4

## SNGSSINWPPEFHPGVPWKGLQNIDPEN
[3]
  motif_found: FALSE

## SNPFMTGAPTGQFPTG
[4]
  best_specificity: 1
[5]
  best_confidence: 3
[6]
  motif_found: TRUE

## SNTNRFQVSVINENHE
[7]
  HD2_cytoplasm confidence: 4

## SPALTAPPPAYATLGPRP
[8]
  motif_found: FALSE
[9]
  motif_found: FALSE

## SPANSFHFKEAWKHAIQKAKHMPDPWA [EEF2K]
[10]
  motif_found: FALSE

## SPFLPDLNFFAADSCL
[11]
  HD2 confidence: 2

## SPSLPNITLGLPATGP
Bait ANKRA2_Ank__Q9H9E1_142_313, HD1 P8 library, confidence level (4 = High, 2-3 = Medium, 1 = Low)
  HD confidence: 4
Bait ANKRA2_Ank__Q9H9E1_142_313, HD1 P8 library, mean NGS counts over replicate selections
  HD mean counts: 701.75
Bait ANKRA2_Ank__Q9H9E1_142_313, HD1 P8 library, mean proportion of NGS counts
  HD count proportions: 0.06192

## SQKGNISETIVIDDEEDIETNGGA
[12]
  motif_found: FALSE

## SQPAGISTNPFMTGPSSSP
[6]
  motif_found: FALSE

## SQPVMRPPNPFGPVSGAQI
[6]
  motif_found: FALSE

## SQRIQTNNNPFQVPIEEQR [RELA 138-142]
HD2 library, bait EPS15_EH__P42566_121_215, benchmark motif instance, in_library_check FALSE, in_library_coverage 0
  motif_found: FALSE

## SQSSASSEDYIIILPECFDT
[13]
  motif_found: FALSE
[14]
  motif_found: FALSE

## SRHAQEPPAKRRKGSKGPEG-
[15]
  motif_found: FALSE

## SRWEVIANYMNIHSSS
[1]
  HD2-1mM_CaCl confidence: 3
[2]
  HD2 confidence: 3

## SSDGTCVAARTRPVLSCKKRR
Library HD2, bait WDR5_WD_1234567_P61964_21_334, validated benchmark motif instance, in_library_check TRUE, TRUE/FALSE = instance recovered in ProP-PD selection
  motif_found: FALSE

## SSGSSEDSFVEIRMAEGEA
[13]
  motif_found: FALSE
[14]
  motif_found: FALSE

## SSHRKTKKPLPPTPEEDQILK
Library HD2, bait YES1_SH3__P07947_90_152, validated benchmark motif instance, in_library_check TRUE, TRUE/FALSE = instance recovered in ProP-PD selection
  motif_found: FALSE

## SSKPNQKKLIVLSDSEVIQLSDG
[12]
  motif_found: FALSE

## SSLEEPHSPETGEKVVAGEV
[16]
  motif_found: FALSE

## SSNPPTSVPTAPALSSVIAP
HD2 library, bait TSG101_UEV__Q99816_1_145, known motif instance of the benchmarking set found (TRUE) or not found (FALSE) among selected peptides
  motif_found: FALSE

## SSSSASGSYGHLSASAISPALS
Bait SUFU_SUFU__Q9UMX1_1_484, HD2 library, whether the validated benchmark motif instance was recovered in the ProP-PD selection (TRUE/FALSE)
  motif_found: FALSE

## STAQEQDDVLIVDSDEEDSSNNADV
[12]
  motif_found: FALSE

## STASKGRYIPPHLRNREATKG
Library HD2, bait EIF4E_eIF4E__P06730_1_217, whether the validated benchmark motif instance was recovered in the ProP-PD selection (TRUE/FALSE)
  motif_found: FALSE

## SVEFLDLAHSSESQETISS
Library HD2, bait USP7_MATH-TRAF__Q93009_53_206, validated benchmark motif instance, in_library_check TRUE, TRUE/FALSE = instance recovered in ProP-PD selection
  motif_found: FALSE

## SVVSPPELPPRNIPLT
Bait CRK_SH3_1_P46108_124_198, library HD
  HD confidence: 2
Bait CRK_SH3_1_P46108_124_198, library HD2 P8
  HD2 confidence: 4
Bait CRK_SH3_1_P46108_124_198, library HD2 P8 cytoplasm
  HD2_cytoplasm confidence: 4
Bait CRK_SH3_1_P46108_124_198, library HD2 P8 nucleocytoplasmic
  HD2_nc confidence: 2
Bait CRK_SH3_1_P46108_124_198, library HD2 P8 nucleocytoplasmic, mean normalised NGS counts
  HD2_nc count proportions: 6.106e-06
Bait CRK_SH3_1_P46108_124_198, library HD2 P8 nucleocytoplasmic, mean raw NGS counts, all selections
  HD2_nc mean counts: 1.0
Bait CRK_SH3_1_P46108_124_198, library HD, mean normalised NGS counts
  HD count proportions: 0.0001782
Bait CRK_SH3_1_P46108_124_198, library HD, mean raw NGS counts, all selections
  HD mean counts: 3.0

## SWVAFAHTGAWGTGLP
Bait AP2B1_adaptin__P63010_700_937, HD2 P8 selection, non primary paralogue peptide match, confidence level -4 to 4: 4 = High, 3 or 2 = Medium, 1 = Low, 0 = Filtered/Noise
  HD2 confidence: 4

## TDEVPVPPPVPPRRRPESAP,DEVPVPPPVPPRRRPESAPA [SOS1]
[17]
  motif_found: FALSE

## TDYRPPDDAVFDIITDEELCQ
[14]
  motif_found: FALSE

## TFNSYRKEWEELFVNNNYL [TBC1D5 58-62]
HD2 library, bait MAP1LC3A_ATG8__Q9H492_2_121, benchmark motif instance, in_library_check FALSE, in_library_coverage 0
  motif_found: FALSE
HD2 library, bait MAP1LC3B_ATG8__Q9GZQ8_2_119, benchmark motif instance, in_library_check FALSE, in_library_coverage 0
  motif_found: FALSE

## TGQPTKVGRFQVTTTA
[7]
  HD2_cytoplasm confidence: 4

## THHNQASDIIVISSEDSEGSTDVDE
[12]
  motif_found: FALSE

## TKSTVTGERQSGDGQESTEPVE
[18]
  motif_found: FALSE

## TKVGRFQVTTTANKVG
[19]
  best_confidence: 4
[20]
  best_specificity: 1
[21]
  motif_found: TRUE

## TLALPSLVPQNYTENK
Bait ANKRA2_Ank__Q9H9E1_142_313, library HD
  HD confidence: 2
Bait ANKRA2_Ank__Q9H9E1_142_313, library HD, mean normalised NGS counts
  HD count proportions: 0.0001017
Bait ANKRA2_Ank__Q9H9E1_142_313, library HD, mean raw NGS counts, all selections
  HD mean counts: 1.75

## TLDDSDEDVILVESQDPPLPS
[12]
  motif_found: FALSE

## TLVSPKLPSLEAPTSA
[11]
  HD2 confidence: 3

## TNAYKLPLAVGPPSLNYIPPVLQLS,LAVGPPSLNYIPP [TEX14]
Bait CEP55_EABR__Q53EZ4_160_217, library HD2, benchmarking set of validated motif instances, TRUE = motif instance recovered in the ProP-PD selection
  motif_found: TRUE

## TNGAMNVEIGNPTYKMYEGGEP
HD2 library, bait TLN1_PTB__Q9Y490_309_401, known motif instance of the benchmarking set found (TRUE) or not found (FALSE) among selected peptides
  motif_found: FALSE

## TNLYWPGTAEPLLVSS
Library HD, bait AP2B1_adaptin__P63010_700_937, ProP-PD peptides with disease-related mutations
  confidence: 2

## TNPFLNETLQDVQPSP
[4]
  best_specificity: 1
[5]
  best_confidence: 4
[6]
  motif_found: TRUE

## TNPFQPAPPATLTLNQ
[4]
  best_specificity: 1
[5]
  best_confidence: 4
[6]
  motif_found: TRUE

## TPDSRRVARPPPIGAEVPDVTA
[18]
  motif_found: FALSE

## TPGAALSWQAAIDAARQAKLMG [CACNA1C]
[10]
  motif_found: FALSE

## TPPGAKASNPFLPGGGPAT
[6]
  motif_found: FALSE

## TPPPPYTVAPGRPLTA
Library HD2, bait YAP1_WW_1_P46937_169_207, confidence level of best matching selected peptide (4 High, 2-3 Medium, 1 Low)
  best_confidence: 4
Library HD2, bait YAP1_WW_1_P46937_169_207, specificity score of best matching selected peptide
  best_specificity: 1
[9]
  motif_found: TRUE

## TPSYSISSTLNPQAPEFILGCTASKIT
[3]
  motif_found: FALSE

## TPYTAYPPPAQAYGIP
Bait CEP55_EABR__Q53EZ4_160_217, HD2 P8 nucleocytoplasmic sublibrary, confidence level (4 = High, 2-3 = Medium, 1 = Low)
  HD2_nc confidence: 4
Bait CEP55_EABR__Q53EZ4_160_217, HD2 P8 nucleocytoplasmic sublibrary, mean NGS counts over replicate selections
  HD2_nc mean counts: 482.0
Bait CEP55_EABR__Q53EZ4_160_217, HD2 P8 nucleocytoplasmic sublibrary, mean proportion of NGS counts
  HD2_nc count proportions: 0.008703

## TQRSKPQPAVPPRPSADLIL [NCF1]
[17]
  motif_found: FALSE

## TQVPGTPPPKYNTLRLER
[8]
  motif_found: FALSE
[9]
  motif_found: FALSE

## TRKKTFKEVANAVKISASLMGT
Library HD2, bait CALM1_EF-hand__P0DP23_2_149, motif instance NOT in library (in_library_check FALSE, in_library_coverage 0)
  motif_found: FALSE

## TSNNRLLNKRRKKQAGSSSA
[15]
  motif_found: FALSE

## TTTANKVGRFSVSKTE
[19]
  best_confidence: 2
[20]
  best_specificity: 1
[21]
  motif_found: TRUE

## TVNNCAQDRESPDGSYTEEQSQ
[18]
  motif_found: FALSE

## VDLTHNDSVVIVDERRRPRRN
[12]
  motif_found: FALSE

## VDPSTGELQSLQMPES
Library HD2, bait Keap1_KELCH__Q14145_321_609, best matching peptide
  best_specificity: 1
Library HD2, bait Keap1_KELCH__Q14145_321_609, confidence level of best matching peptide (4 High, 2-3 Medium, 1 Low)
  best_confidence: 3
[16]
  motif_found: TRUE

## VEEEWVIVSDEEIEEA
Bait MAP1LC3A_ATG8__Q9H492_2_121, HD2 P8 endomembrane sublibrary, confidence level (4 = High, 2-3 = Medium, 1 = Low)
  HD2_endomembrane confidence: 4
